This passage reports IC50 and Ratio IC50 results from ChEMBL document CHEMBL1817595, “Design, synthesis, biological evaluation and X-ray crystal structure of novel classical 6,5,6-tricyclic benzo[4,5]thieno[2,3-d]pyrimidines as dual thymidylate synthase and dihydrofolate reductase inhibitors” (Bioorg Med Chem, 2011).

The target in assay [1] is T1, Bifunctional dihydrofolate reductase-thymidylate synthase (Toxoplasma gondii, UniProt Q07422).
T1 sequence (Q07422 whole entry): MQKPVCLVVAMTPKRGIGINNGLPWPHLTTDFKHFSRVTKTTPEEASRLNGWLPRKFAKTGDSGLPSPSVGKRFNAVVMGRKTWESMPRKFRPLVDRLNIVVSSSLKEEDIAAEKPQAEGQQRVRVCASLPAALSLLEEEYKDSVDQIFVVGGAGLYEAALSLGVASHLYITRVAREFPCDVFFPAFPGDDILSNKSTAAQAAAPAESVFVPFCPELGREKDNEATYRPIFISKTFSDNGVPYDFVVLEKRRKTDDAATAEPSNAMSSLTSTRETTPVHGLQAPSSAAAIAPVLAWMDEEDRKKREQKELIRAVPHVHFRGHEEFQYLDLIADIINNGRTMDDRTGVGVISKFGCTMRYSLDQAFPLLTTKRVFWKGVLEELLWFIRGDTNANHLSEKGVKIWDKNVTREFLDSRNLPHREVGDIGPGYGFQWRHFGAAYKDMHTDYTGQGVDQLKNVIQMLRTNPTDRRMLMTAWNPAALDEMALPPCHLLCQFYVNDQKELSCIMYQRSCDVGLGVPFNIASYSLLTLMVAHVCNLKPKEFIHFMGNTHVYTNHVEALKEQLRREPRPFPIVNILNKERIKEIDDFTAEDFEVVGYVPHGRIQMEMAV
Description: Inhibition of Toxoplasma gondii TS assessed as oxidation of tetrahydrofolate to dihydrofolate after 2 to 12 mins by spectrophotometry.

Assay [2] addresses T2, Dihydrofolate reductase (Escherichia coli, UniProt P0ABQ4).
T2 sequence (P0ABQ4 whole entry): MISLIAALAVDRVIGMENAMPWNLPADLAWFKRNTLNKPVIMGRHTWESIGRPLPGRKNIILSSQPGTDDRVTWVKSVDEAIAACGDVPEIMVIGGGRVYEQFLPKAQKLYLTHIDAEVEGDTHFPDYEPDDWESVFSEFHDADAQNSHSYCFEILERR
Description: Inhibition of Escherichia coli DHFR by spectrophotometry.

For assay [3], the target named is T1, Bifunctional dihydrofolate reductase-thymidylate synthase. Description: Inhibition of Toxoplasma gondii DHFR by spectrophotometry.
Assay [4] deals with T3, Thymidylate synthase (Homo sapiens, UniProt P04818). Kind of assay: Inhibition of human TS assessed as oxidation of tetrahydrofolate to dihydrofolate after 2 to 12 mins by spectrophotometry.
Target sequence in this assay (P04818 whole entry): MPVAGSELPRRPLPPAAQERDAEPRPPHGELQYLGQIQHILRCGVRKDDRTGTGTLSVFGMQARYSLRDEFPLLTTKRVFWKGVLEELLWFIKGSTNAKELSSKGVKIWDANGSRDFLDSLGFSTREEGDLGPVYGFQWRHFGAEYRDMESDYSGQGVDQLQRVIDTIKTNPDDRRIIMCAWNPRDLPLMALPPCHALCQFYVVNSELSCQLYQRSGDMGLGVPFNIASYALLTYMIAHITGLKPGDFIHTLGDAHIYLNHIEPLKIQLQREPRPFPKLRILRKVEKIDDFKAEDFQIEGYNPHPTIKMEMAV
Assay [5] addresses T4, Thymidylate synthase (EC 2.1.1.45) (TS) (TSase) (Escherichia coli, UniProt E2QDN0).
T4 sequence (E2QDN0 whole entry): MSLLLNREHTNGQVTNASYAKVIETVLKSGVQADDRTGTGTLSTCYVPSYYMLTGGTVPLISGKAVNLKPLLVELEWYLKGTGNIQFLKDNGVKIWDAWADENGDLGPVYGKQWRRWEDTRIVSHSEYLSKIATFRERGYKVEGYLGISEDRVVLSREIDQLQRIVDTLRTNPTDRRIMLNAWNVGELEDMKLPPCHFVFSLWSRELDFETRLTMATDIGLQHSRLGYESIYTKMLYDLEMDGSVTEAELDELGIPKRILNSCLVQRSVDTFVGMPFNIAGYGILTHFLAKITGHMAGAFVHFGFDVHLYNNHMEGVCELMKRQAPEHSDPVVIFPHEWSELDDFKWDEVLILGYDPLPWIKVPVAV
Description: Inhibition of Escherichia coli TS assessed as oxidation of tetrahydrofolate to dihydrofolate after 2 to 12 mins by spectrophotometry.

For assay [6], the target named is T5, Dihydrofolate reductase (Homo sapiens, UniProt P00374).
T5 sequence (P00374 whole entry): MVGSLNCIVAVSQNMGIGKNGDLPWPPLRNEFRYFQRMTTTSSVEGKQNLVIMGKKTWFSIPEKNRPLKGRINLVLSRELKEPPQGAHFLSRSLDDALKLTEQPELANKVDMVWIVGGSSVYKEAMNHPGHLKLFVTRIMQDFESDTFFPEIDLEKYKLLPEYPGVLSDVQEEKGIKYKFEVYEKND
Description: Inhibition of human DHFR by spectrophotometry.

Assay [7] concerns the target T3, Thymidylate synthase. Description: Ratio of premetrexed IC50 to compound IC50 for human TS.
Target sequence in this assay (P04818 2-313 limits assumed): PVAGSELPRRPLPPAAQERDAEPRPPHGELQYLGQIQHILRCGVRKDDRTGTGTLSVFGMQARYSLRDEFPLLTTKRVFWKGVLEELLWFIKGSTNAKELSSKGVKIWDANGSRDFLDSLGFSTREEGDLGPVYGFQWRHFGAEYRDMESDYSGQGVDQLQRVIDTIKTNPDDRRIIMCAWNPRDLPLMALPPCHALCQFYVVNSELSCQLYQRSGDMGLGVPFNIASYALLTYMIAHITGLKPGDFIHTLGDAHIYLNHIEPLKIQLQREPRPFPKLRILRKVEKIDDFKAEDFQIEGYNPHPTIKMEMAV

In the case of `Cc1[nH]c2nc(N)[nH]c(=O)c2c1Sc1ccc(C(=O)N[C@@H](CCC(=O)O)C(=O)O)cc1`, the results for the IC50 (in assay [1]; on Dihydrofolate reductase [2]; in assay [3]) were 90 nM, 22000 nM and 230 nM, respectively.
For `Nc1nc2sc3cccc(CNc4ccc5c(c4)CN([C@@H](CCC(=O)O)C(=O)O)C5=O)c3c2c(=O)[nH]1`, the IC50 came to 34 nM on Thymidylate synthase [4]; 50 nM in assay [5]; 170 nM in assay [1]; 100 nM at Dihydrofolate reductase [6]; 400 nM against Dihydrofolate reductase [2]; 10 nM in assay [3]. The Ratio IC50 on Thymidylate synthase [7] is 50.
Turning to `Nc1nc2sc3cccc(CNc4ccc(C(=O)N[C@@H](CCC(=O)O)C(=O)O)cc4)c3c2c(=O)[nH]1`, the IC50 at Thymidylate synthase [4] worked out at 68 nM; in assay [5] it was 17 nM; in assay [1], 140 nM; on Dihydrofolate reductase [6], 90 nM; at Dihydrofolate reductase [2], 400 nM; in assay [3], 20 nM. At Thymidylate synthase [7], the Ratio IC50 was determined as 50.
In the case of `Nc1nc2[nH]cc(CCc3ccc(C(=O)N[C@@H](CCC(=O)O)C(=O)O)cc3)c2c(=O)[nH]1` [PEMETREXED], in assay [5], the IC50 came to 76000 nM.
Take `Cc1nc2sc3cccc(CNc4ccc5c(c4)CN([C@@H](CCC(=O)O)C(=O)O)C5=O)c3c2c(=O)[nH]1`: the IC50 is 800 nM at Thymidylate synthase [4]; 850 nM in assay [5]; 3700 nM in assay [1]; over 20000 nM on Dihydrofolate reductase [6]; over 20000 nM on Dihydrofolate reductase [2]; 1800 nM in assay [3]. Further, on Thymidylate synthase [7], the Ratio IC50 is 50.
As for `Cc1nc2ccc3ccc(CNc4ccc5c(c4)CN([C@@H](CCC(=O)O)C(=O)O)C5=O)cc3c2c(=O)[nH]1` [OSI-7904], the IC50 in assay [5] was 23 nM; in assay [1], 27 nM; at Dihydrofolate reductase [6], over 20000 nM; at Dihydrofolate reductase [2], 20000 nM; in assay [3], 710 nM.
Take `Cc1nc2sc3cccc(CNc4ccc(C(=O)N[C@@H](CCC(=O)O)C(=O)O)cc4)c3c2c(=O)[nH]1`: the IC50 on Thymidylate synthase [4] was 260 nM; in assay [5], 820 nM; in assay [1] it was 1700 nM; against Dihydrofolate reductase [6] it was over 20000 nM; against Dihydrofolate reductase [2] it was 15000 nM; in assay [3] it was 1400 nM. Also, the Ratio IC50 at Thymidylate synthase [7] amounted to 50.

A word on the IC50: it is the concentration that inhibits the measured activity by half.
